# pIC50: −log10 of the molar value.
# Key:
# mouse IDO1 = molecular target: T1, mouse IDO1 (Mus musculus, UniProt P28776); assay: Mouse IDO1 cell-based assay (PANC02 cells, mouse IFNgamma-induced, N-formylkynurenine/L-tryptophan by RFMS); settings: 30 ng/mL mouse IFNgamma, 48 hours
# T1 construct: The murine PANC02 pancreatic ductal adenocarcinoma cell line was routinely maintained in DMEM media; endogenous in cells; host or cells: PANC02 murine pancreatic ductal adenocarcinoma cells, induced with mouse IFNgamma
# Method: The murine PANC02 pancreatic ductal adenocarcinoma cell line was routinely maintained in DMEM media containing 10% FBS. Cells (3,000/well) were seeded onto a 384 well plate in 50 μl of media and incubated at 37° C., 5% CO2 overnight. Cell media was aspirated, fresh media containing 30 ng/mL mouse IFNgamma (Gibco Life Technologies, cat #PMC4031) was added, and cells were incubated in absence or presence of various concentrations of compounds (final 0.5% DMSO) for 48 hours at 37° C., 5% CO2. Aliquots of the cell conditioned media was removed from the cell plate, and mixed with equal volume of 200 mM ZnSO4 to precipitate media containing protein. Two volumes of acetonitrile were added by mixing, and samples were then centrifuged at 2250G for 20 minutes at 4° C. Aliquots of the supernatant were diluted 1:10 in 0.1% formic acid containing 3 μM of deuterated Tryptophan as an internal standard.
# Samples were analyzed via RFMS to quantify N-Formyl Kynurenine (AUC) and L-tryptophan (AUC). A C18 cartridge was used with mobile phases of 0.1% Formic Acid and 80% ACN/0.1% Formic Acid under isocratic conditions. Dose-response curves were analyzed using IC50 regression curve fitting (GeneData Screener). Curves were plotted as percent of control and normalized by high controls without inhibitor (100%), and low controls (0%) containing 1 μM of epacadostat. Cell viability was also assessed using the Cell Titer Glo Kit (Promega) following manufacture recommendation.
# IDO1 = molecular target: T2, IDO1 (Homo sapiens, UniProt P14902); assay: IDO1 cell-based assay (HeLa cells, IFNgamma-induced, N-formylkynurenine/L-tryptophan by RFMS); settings: 10 ng/mL IFNgamma, 24 hours
# T2 construct: endogenous in cells; host or cells: HeLa cells (ATCC), IFNgamma-induced
# Procedure, shortened: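 N-formylkynurenine and tryptophan peak areas in media measured by RFMS (C18, isocratic, d-Trp standard), giving IC50 values by regression. Source: HeLa cells incubated 24 h with IFNgamma (10 ng/mL) plus test compound at 0.5% DMSO; parallel CellTiter-Glo viability read.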
# T2 sequence (P14902 whole entry): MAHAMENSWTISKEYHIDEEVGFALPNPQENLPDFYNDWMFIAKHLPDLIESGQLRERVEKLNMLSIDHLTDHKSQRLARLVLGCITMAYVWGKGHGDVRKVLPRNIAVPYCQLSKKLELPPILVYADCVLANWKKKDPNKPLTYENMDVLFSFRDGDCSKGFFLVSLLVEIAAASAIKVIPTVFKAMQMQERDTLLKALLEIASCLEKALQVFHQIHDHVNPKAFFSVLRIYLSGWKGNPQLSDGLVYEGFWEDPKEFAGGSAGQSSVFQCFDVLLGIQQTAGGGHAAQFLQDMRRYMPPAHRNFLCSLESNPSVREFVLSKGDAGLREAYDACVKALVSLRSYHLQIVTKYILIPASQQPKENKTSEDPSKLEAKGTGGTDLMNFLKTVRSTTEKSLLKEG
# T1 sequence (P28776 whole entry): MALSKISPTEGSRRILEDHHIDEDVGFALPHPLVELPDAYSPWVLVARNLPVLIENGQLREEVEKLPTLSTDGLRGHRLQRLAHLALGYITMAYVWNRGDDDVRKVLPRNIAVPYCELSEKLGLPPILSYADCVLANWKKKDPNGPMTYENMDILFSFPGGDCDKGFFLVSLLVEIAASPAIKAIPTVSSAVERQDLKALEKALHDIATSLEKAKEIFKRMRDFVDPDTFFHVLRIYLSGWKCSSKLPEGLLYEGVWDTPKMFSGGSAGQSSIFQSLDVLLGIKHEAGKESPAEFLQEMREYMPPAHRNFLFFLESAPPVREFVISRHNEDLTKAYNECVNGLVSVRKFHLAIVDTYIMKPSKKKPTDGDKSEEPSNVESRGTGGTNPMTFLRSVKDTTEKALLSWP
Compound,pIC50 (mouse IDO1),pIC50 (IDO1)
"COCc1cn([C@@H]2C[C@@H]3[C@H](C2)[C@H]3C(C)NC(=O)c2ccc(C#N)cc2)nn1 (stereo partly drawn) [Compound 242, 4-cyano-N-(1-((1R,3s,5S,6r)-3-(4-(methoxymethyl)-1H-1,2,3-triazol-1-yl)bicyclo[3.1.0]hexan-6-yl)ethyl)benzamide]",< 5.30,5.70 to 6.70
"CCC(NC(=O)c1ccc(Cl)cc1)[C@H]1[C@@H]2C[C@@H](n3cc(N4C(=O)c5ccccc5C4=O)nn3)C[C@@H]21 (stereo partly drawn) [Compound 232, 4-chloro-N-(1-((1R,3s,5S,6r)-3-(4-(1,3-dioxoisoindolin-2-yl)-1H-1,2,3-triazol-1-yl)bicyclo[3.1.0]hexan-6-yl)propyl)benzamide]",< 5.30,< 5.30
"CCC(NC(=O)c1ccc(Cl)cc1)[C@H]1[C@@H]2C[C@@H](n3cc(NC(C)=O)nn3)C[C@@H]21 (stereo partly drawn) [Compound 256, N-(1-((1R,3s,5S,6r)-3-(4-acetamido-1H-1,2,3-triazol-1-yl)bicyclo[3.1.0]hexan-6-yl)propyl)-4-chlorobenzamide]",< 5.30,< 5.30
"CCC(NC(=O)c1ccc(Cl)cc1)[C@H]1[C@@H]2C[C@@H](NC(=O)c3nccc(C(F)(F)F)c3Cl)C[C@@H]21 (stereo partly drawn) [Compound 158, 3-chloro-N-((1R,3s,5S,6r)-6-(1-(4-chlorobenzamido)propyl)bicyclo[3.1.0]hexan-3-yl)-4-(trifluoromethyl)picolinamide]",5.70 to 6.30,> 6.70
"O=C(Nc1ccc(Cl)cc1)N[C@H]1[C@@H]2C[C@@H](Oc3ccnc4ccc(F)cc34)C[C@@H]21 [Compound 10, 1-(4-chlorophenyl)-3-((1R,3s,5S,6r)-3-((6-fluoroquinolin-4-yl)oxy)bicyclo[3.1.0]hexan-6-yl)urea]",–,> 6.70
"O=S(=O)(NC1C2CC(Oc3ccnc4ccccc34)CC21)c1ccc(Cl)cc1 (stereo not drawn) [Compound 28, 4-chloro-N-(3-(quinolin-4-yloxy)bicyclo[3.1.0]hexan-6-yl)benzenesulfonamide]",–,< 5.30
"C[C@@H](NC(=O)c1ccc(C#N)cc1)[C@H]1[C@@H]2C[C@@H](c3ccnc4ccc(F)cc34)C[C@@H]21 [Compound 278, 4-cyano-N-((R)-1-((1R,3S,5S,6r)-3-(6-fluoroquinolin-4-yl)bicyclo[3.1.0]hexan-6-yl)ethyl)benzamide]",–,> 6.70
"CCC(NC(=O)c1ccc(Cl)cc1)[C@H]1[C@@H]2C=CC[C@@H]21 (stereo partly drawn) [Compound 113, N-(1-((1R,5S,6R)-bicyclo[3.1.0]hex-2-en-6-yl)propyl)-4-chlorobenzamide]",–,5.70 to 6.70
"O=C(NC1C2CN(c3ccnc4ccc(F)cc34)CC21)C(O)c1ccc(Br)cc1 (stereo not drawn) [Compound 111, 2-(4-bromophenyl)-N-(3-(6-fluoroquinolin-4-yl)-3-azabicyclo[3.1.0]hexan-6-yl)-2-hydroxyacetamide]",–,< 5.30
"CC(C)(NC(=O)c1ccc(C#N)cc1)C1[C@H]2CC(Oc3cnnc4ccccc34)C[C@@H]12 (stereo partly drawn) [Compound 88, N-(2-((1R,5S)-3-(cinnolin-4-yloxy)bicyclo[3.1.0]hexan-6-yl)propan-2-yl)-4-cyanobenzamide]",–,> 6.70
"CCC(NC(=O)c1ccc(Cl)cc1)[C@H]1[C@@H]2C[C@@H](NC(=O)c3ccc4ccccc4n3)C[C@@H]21 (stereo partly drawn) [Compound 118, N-((1R,3s,5S,6r)-6-(1-(4-chlorobenzamido)propyl)bicyclo[3.1.0]hexan-3-yl)quinoline-2-carboxamide]",–,> 6.70

# Continued, values first:
pIC50 (mouse IDO1),pIC50 (IDO1),Compound
5.70 to 6.30,> 6.70,"CCC(NC(=O)c1ccc(Cl)cc1)[C@H]1[C@@H]2C[C@@H](n3ncc4c(F)cccc43)C[C@@H]21 (stereo partly drawn) [Compound 210, 4-chloro-N-(1-((1R,3s,5S,6r)-3-(4-fluoro-1H-indazol-1-yl)bicyclo[3.1.0]hexan-6-yl)propyl)benzamide]"
> 6.30,> 6.70,"CCC(NC(=O)c1ccc(Cl)cc1)[C@H]1[C@@H]2C[C@@H](n3cc4cccc(F)c4n3)C[C@@H]21 (stereo partly drawn) [Compound 205, 4-chloro-N-(1-((1R,3s,5S,6r)-3-(7-fluoro-2H-indazol-2-yl)bicyclo[3.1.0]hexan-6-yl)propyl)benzamide]"
5.30 to 5.70,5.70 to 6.70,"CCC(NC(=O)c1ccc(Cl)cc1)[C@H]1[C@@H]2C[C@H](n3cc(CO)nn3)C[C@@H]21 (stereo partly drawn) [Compound 187, 4-chloro-N-(1-((1R,3r,5S,6r)-3-(4-(hydroxymethyl)-1H-1,2,3-triazol-1-yl)bicyclo[3.1.0]hexan-6-yl)propyl)benzamide]"
5.70 to 6.30,> 6.70,"CCC(NC(=O)c1ccc(Cl)cc1)[C@H]1[C@@H]2C[C@@H](N3C(=O)c4ccccc4C3=O)C[C@@H]21 (stereo partly drawn) [Compound 161, 4-chloro-N-(1-((1R,3s,5S,6r)-3-(1,3-dioxoisoindolin-2-yl)bicyclo[3.1.0]hexan-6-yl)propyl)benzamide]"
> 6.30,–,"CC[C@H](NC(=O)c1ccc(Cl)cc1)[C@H]1[C@@H]2C[C@@H](n3cnc4ccc(F)cc43)C[C@@H]21 [Compound 248, 4-chloro-N—((S)-1-((1R,3S,5S,6r)-3-(6-fluoro-1H-benzo[d]imidazol-1-yl)bicyclo[3.1.0]hexan-6-yl)propyl)benzamide]"
> 6.30,–,"CC[C@@H](NC(=O)c1ccc(Cl)cc1)[C@H]1[C@@H]2C[C@@H](n3cnc4ccc(F)cc43)C[C@@H]21 [Compound 247, 4-chloro-N—((R)-1-((1R,3S,5S, 6r)-3-(6-fluoro-1H-benzo[d]imidazol-1-yl)bicyclo[3.1.0]hexan-6-yl)propyl)benzamide]"
> 6.30,–,CCC(NC(=O)c1ccc(Cl)cc1)[C@H]1[C@@H]2C[C@@H](n3cnc4ccc(F)cc43)C[C@@H]21 (stereo partly drawn) [Compound 125]
–,> 6.70,"CCC(NC(=O)c1ccc(C#N)cc1)[C@H]1[C@@H]2C[C@@H](n3cnc4ccc(F)cc4c3=O)C[C@@H]21 (stereo partly drawn) [Compound 67, 4-cyano-N-(1-((1R,3s,5S,6r)-3-(6-fluoro-4-oxoquinazolin-3(4H)-yl)bicyclo[3.1.0]hexan-6-yl)propyl)benzamide]"
–,> 6.70,"CCC(NC(=O)c1ccc(Cl)cc1)[C@H]1[C@@H]2C[C@@H](Oc3cnc4ccccc4c3)C[C@@H]21 (stereo partly drawn) [Compound 49, 4-chloro-N-(1-((1R,3s,5S,6r)-3-(quinolin-3-yloxy)bicyclo[3.1.0]hexan-6-yl)propyl)benzamide]"
–,> 6.70,"CC[C@@H](NC(=O)c1ccc(Cl)cc1)[C@H]1[C@@H]2C[C@@H](n3cc(C(F)(F)F)cn3)C[C@@H]21 [Compound 332, 4-chloro-N-((R)-1-((1R,3S,5S,6r)-3-(4-(trifluoromethyl)-1H-pyrazol-1-yl)bicyclo[3.1.0]hexan-6-yl)propyl)benzamide]"
–,< 5.30,"Cn1cc(C(=O)NC[C@@H]2[C@H]3C[C@H](n4cnc5cc(F)c(F)cc54)C[C@@H]23)cn1 [Compound 319, N-(((1R,3s,5S,6r)-3-(5,6-difluoro-1H-benzo[d]imidazol-1-yl)bicyclo[3.1.0]hexan-6-yl)methyl)-1-methyl-1H-pyrazole-4-carboxamide]"
–,5.70 to 6.70,"CC[C@@H](NC(=O)c1ccc(C#N)cc1)[C@H]1[C@@H]2C[C@@H](n3cc(C4CCOC4)nn3)C[C@@H]21 (stereo partly drawn) [Compound 295, 4-cyano-N-((1R)-1-((1R,3S,5S,6r)-3-(4-(tetrahydrofuran-3-yl)-1H-1,2,3-triazol-1-yl)bicyclo[3.1.0]hexan-6-yl)propyl)benzamide]"
–,> 6.70,"CC[C@@H](NC(=O)c1cccc(C#N)c1)[C@H]1[C@@H]2C[C@@H](n3cnc4cc(F)c(F)cc43)C[C@@H]21 [Compound 313, 3-cyano-N-((R)-1-((1R,3S,5S,6r)-3-(5,6-difluoro-1H-benzo[d]imidazol-1-yl)bicyclo[3.1.0]hexan-6-yl)propyl)benzamide]"
–,> 6.70,"CCC(NC(=O)c1ccc(Cl)cc1)[C@H]1[C@@H]2C[C@@H](Oc3ncnc4ccc(F)cc34)C[C@@H]21 (stereo partly drawn) [Compound 5, 4-chloro-N-(1-((1R,3s,5S,6r)-3-((6-fluoroquinazolin-4-yl)oxy)bicyclo[3.1.0]hexan-6-yl)propyl)benzamide]"
–,> 6.70,"CCC(NC(=O)c1ccc(Cl)cc1)[C@H]1[C@@H]2C[C@@H](n3cnc4cc(F)ccc4c3=O)C[C@@H]21 (stereo partly drawn) [Compound 34, 4-chloro-N-(1-((1R,3s,5S,6r)-3-(7-fluoro-4-oxoquinazolin-3(4H)-yl)bicyclo[3.1.0]hexan-6-yl)propyl)benzamide]"
–,5.70 to 6.70,"CCC(NC(=O)c1ccc(C#N)cn1)C1C2CC(Oc3cnnc4ccccc34)CC21 [Compound 82, N-(1-((1R,3s,5S,6r)-3-(cinnolin-4-yloxy)bicyclo[3.1.0]hexan-6-yl)propyl)-5-cyanopicolinamide]"
< 5.30,–,"CCC(NC(=O)c1ccc(Cl)cc1)[C@H]1[C@@H]2C[C@@H](n3cnc4ccncc43)C[C@@H]21 (stereo partly drawn) [Compound 197, N-(1-((1R,3s,5S,6r)-3-(3H-imidazo[4,5-c]pyridin-3-yl)bicyclo[3.1.0]hexan-6-yl)propyl)-4-chlorobenzamide]"
